Where two headings read alike, the source gives them in different places. Where only a bound is given, the exact number is not on record here.

For experiment [1], the system named is Leiomyosarcoma/abdominal patient tumor cells. Description: Alamar Blue anti-tumor screen, IC50 on patient tumor cells, tumor #1. The note with it: triplicate. The format is cell-based, human. The source says:
(§1) Excess tissue specimens obtained from patients undergoing therapeutic surgical resections were freshly obtained at the time of surgery and a small portion of the specimen was sent for pathological testing. For diagnosis and grading of tissue samples (ie: prior to processing), hematoxylin and eosin stained tissue sections were examined by a pathologist. If the diagnosis and grading of the tissue concurred with the determination made by the surgical pathologist that provided the tissue, then the tissue was used in the screen. If there was no agreement, then two additional pathologists served as referees. If no consensus was reached, then the tissue was not used. […]
(§2) After tissue processing, the relative purity of the resulting cell suspension was determined by cytological examination after fixation and Papanicolaou staining. […]
(§3) Cell preparations that passed histological and cytological examination for diagnosis, grading, and cell purity were thawed at 37° C. and resuspended in tissue culture medium designed to maintain the cells during the incubation period. The live and dead cells were counted and the cells were diluted in culture medium to 1.0×10^3 live cells/test well for tumor cells and 3.3×10^3 live cells/test well for normal cells. […]
(§4) The kinetics of cellular re-dox reactions were subsequently measured at various times, for example at 3 hours, 3 days, and 5 days post-dye addition. […]

For experiment [2], the system named is Myxofibrosarcoma/thigh patient tumor cells. Briefly: Alamar Blue anti-tumor screen, IC50 on patient tumor cells, tumor #3. The format is cell-based. The following applies: Homo sapiens, triplicate.
Source text: as §1, §2, §3, §4
Background: Resazurin is reduced to fluorescent resorufin, in cell work by metabolically active cells.

For experiment [3], the system named is Leiomyosarcoma/pelvic patient tumor cells. Description: Alamar Blue anti-tumor screen, IC50 on patient tumor cells, tumor #4. The format is cell-based, human. The source says: (§5) Excess tissue specimens obtained from patients undergoing therapeutic surgical resections were freshly obtained at the time of surgery and a small portion of the specimen was sent for pathological testing. For diagnosis and grading of tissue samples (ie: prior to processing), hematoxylin and eosin stained tissue sections were examined by a pathologist. If the diagnosis and grading of the tissue concurred with the determination made by the surgical pathologist that provided the tissue, then the tissue was used in the screen. If there was no agreement, then two additional pathologists served as referees. If no consensus was reached, then the tissue was not used.
(§6) The remaining tissue was used to prepare cell suspensions. The tissue was initially treated enzymatically via standard methods until only undigested material remained. The digested cell suspension was filtered through one or more screens of between 40 micron and 100 micron porosity. The resulting cell suspension was further purified via isokinetic density centrifugation.
(§7) Additional normal cells were removed from the cell suspension by negative immunoselection with a combination of monoclonal antibodies linked to magnetic beads (Dynal) that were used according to the manufacturers' instructions. The remaining cells were placed into appropriate medium, frozen down in 1.0 mL aliquots, and stored until use.
After tissue processing, the relative purity of the resulting cell suspension was determined by cytological examination after fixation and Papanicolaou staining. Only those cell preparations greater than 80% tumor cells were used for testing of candidate compounds. If there was any doubt about the percentage of tumor cells in the cell preparation, additional pathologists served as referees to make a determination.
Cell preparations that passed histological and cytological examination for diagnosis, grading, and cell purity were thawed at 37° C. and resuspended in tissue culture medium designed to maintain the cells during the incubation period. The live and dead cells were counted and the cells were diluted in culture medium to 1.0×10^3 live cells/test well for tumor cells and 3.3×10^3 live cells/test well for normal cells.
The cells were added to microtiter plates and incubated at 37° C. overnight with 10 μM of the candidate compounds that were added at 1/10th the volume of the cell suspension. Alamar Blue (Accumed International, Westlake Ohio) was then added to the cells at 1/10 the volume of the well, and the cells were further incubated at 37° C. for various times. Alamar Blue dye measures cellular re-dox reactions (ie: cellular respiration) whereby a spectral shift occurs upon reduction of the dye. (Excitation 530 nm; emission 590 nm).
The kinetics of cellular re-dox reactions were subsequently measured at various times, for example at 3 hours, 3 days, and 5 days post-dye addition. These measurements, in comparison with control cells (untreated with compound) and media controls (test wells without cells) provide the percent inhibition of cellular mitochondrial respiration as a result of candidate compound treatment, as well as IC50 determinations.
In a blinded fashion, approximately 10,000 compounds were tested at a rate of 1,000-4,000 compounds per run set against various tumor types. The anti-tumor screen utilized was composed of three tiers as follows. In screen 1, patient tumor cells were tested in singles, with candidate compounds at a concentration of 10 μM. […]

For a further experiment, the system named is patient normal cells. Description: Anti-tumor screen 2 at 10 μM on patient normal cells. The following applies: Homo sapiens, screen 2, 10 μM, in duplicate. The format is cell-based.
Source text: as §1, §2, §3, §4

The test system of a further experiment is patient tumor cells. Briefly: Anti-tumor screen 1 and 2 at 10 μM on patient tumor cells. The format is cell-based, human. The following applies: for inhibition at 10 µM: Homo sapiens.
Source text: as §5, §6, §7, §2, §3, §4

Experiment [4] has as its system Fibrohistiocytic Sarcoma/lung patient tumor cells. Briefly: Alamar Blue anti-tumor screen, IC50 on patient tumor cells, tumor #2. The note with it: Homo sapiens, triplicate. The format is cell-based.
Source text: as §1, §2, §3, §4

Experiment [5] concerns Gastrointestinal stromal tumor (sarcoma) patient tumor cells. Briefly: Alamar Blue anti-tumor screen, IC50 on patient tumor cells, tumor #6. The format is cell-based. The following applies: Homo sapiens, triplicate.
Source text: as §1, §2, §3, §4

Experiment [6] deals with Ovarian patient tumor cells. Briefly: Alamar Blue anti-tumor screen, IC50 on patient tumor cells, tumor #7. The format is cell-based. The note with it: Homo sapiens, triplicate.
Source text: as §1, §2, §3, §4

Experiment [7] deals with Gastrointestinal stromal tumor (sarcoma) patient tumor cells. Briefly: Alamar Blue anti-tumor screen, IC50 on patient tumor cells, tumor #5. The format is cell-based. The following applies: Homo sapiens, triplicate.
Source text: as §1, §2, §3, §4

A word on the IC50: it is the concentration at which inhibition is half-maximal. A word on the inhibition: it is the drop in the measured response relative to a control, in per cent. With `O=C(Nc1ccc(Cl)cc1)c1cc(Cl)ccc1NS(=O)(=O)c1ccc(Cl)cc1` [Compound 1, 5-chloro-2-{[(4-chlorophenyl)sulfonyl]amino}-N-(4-chlorophenyl)benzamide], the IC50 in experiment [1] (Homo sapiens) amounted to 170 nM; in experiment [1], 150 nM; in experiment [2] it was 49 nM; in [3] (Homo sapiens, Tumor #4, Leiomyosarcoma/pelvic, patient tumor cells, triplicate (Table 2), read-out: IC50), 339 nM; in experiment [3] (Tumor #4, Leiomyosarcoma/pelvic, patient tumor cells, triplicate (Table 2), read-out: IC50), 410 nM; in experiment [4], 30 nM. In addition, the figures for the IC50 in experiment [5], in experiment [6] and in [7] were 531 nM, 35 nM and 2400 nM, respectively. The inhibition at 10 µM in the experiment on patient normal cells is at most 20%; with patient tumor cells (screen 1, 10 μM, patient tumor cells, criterion: at least 80% inhibition and/or two standard deviations from the mean of the plate samples, read-out: inhibition (compared to cell and media controls)) it was at least 80%; in the experiment on patient tumor cells (screen 2, 10 μM, in duplicate, patient tumors, read-out: inhibition on tumor cells), at least 80%. The “selectivity against tumor cells” value with patient tumor cells (three-tier anti-tumor screen, tumor versus normal patient cells, 10 μM) is reported as “selectivity against tumor cells”.

As for `O=C(Nc1ccc(Cl)cc1)c1cc(Br)ccc1NS(=O)(=O)c1ccc(Cl)cc1` [Compound 2, 5-bromo-2-{[(4-chlorophenyl)sulfonyl]amino}-N-(4-chlorophenyl)-benzamide], the IC50 in experiment [3] (Homo sapiens) turned out to be 44.7 nM.

For `O=C(Nc1ccc(Cl)cc1)c1cc(Br)ccc1NS(=O)(=O)c1ccc(Cl)c([N+](=O)[O-])c1` [Compound 3, (5-bromo-2-{[(4-chloro-3-nitrophenyl)sulfonyl]amino}phenyl)-N-(4-chlorophenyl)carboxamide], in experiment [3] (Homo sapiens), the IC50 was 118 nM.

As for `O=C(Nc1ccc(Cl)cc1)c1cc2ccccc2cc1NS(=O)(=O)c1ccc(Cl)cc1` [Compound 5, N-(4-chlorophenyl)(3-{[(4-chlorophenyl)sulfonyl]amino}(2-naphthyl))-carboxamide], the IC50 in experiment [3] (Homo sapiens, Tumor #4 of Table 2, Leiomyosarcoma/pelvic, tested as in Example 3 (Table 3), read-out: IC50) came out at 209 nM.
